Results from publication PMC11396062, “The n-Butanol Extract Obtained from the Inner Bark of Tabebuia rosea (Bertol.) DC, Specioside, and Catalposide Induce Leukemia Cell Apoptosis in the Presence of Apicidin” (Molecules, 2024).
≈ marks a conversion by molar mass, not a printed value. Read-outs that look alike come from different tables or passages of the source.

Tests used:
[1] = tested on: Peripheral blood mononuclear cells (PBMCs); assay: MTT cell viability assay, PBMC (normal cells); format: cell-based; conditions: Homo sapiens, n = 3
Procedure: Jurkat and THP-1 cell lines were purchased from the American Type Culture Collection (ATCC, Rockville, MD, USA); Jurkat is a human lymphocytic cell line representing acute T-cell leukemia, and THP-1 is a monocytic cell line that represents acute myelogenous leukemia (AML). Jurkat and THP-1 cells were maintained in RPMI 1640 medium (Sigma) supplemented with 10% heat-inactivated fetal bovine serum (FBS) (Gibco Cat No. 16140071, Waltham, MA USA), 200 μg/mL penicillin, 200 μg/mL streptomycin, 400 μg/mL neomycin (GIBCO, Cat No. 15640-055), 5 μg/mL amphotericin, and 1 mM sodium pyruvate (all from Sigma Chemical Co., Saint Louis, MO, USA; Cat Nos. A9528-50 MG, M7522-100ML, and S8636-100ML, respectively). The cells were maintained at 37 °C in a humidified atmosphere with 5% CO2. The culture medium was exchanged with fresh medium every 2–3 days. Peripheral blood mononuclear cells (PBMCs) were isolated from normal human venous blood. Further, 10 milliliters of human blood was mixed with 10 mL of RPMI-1640 containing 50 µL of heparin and gradually poured over 1 mL of HISTOPAQUE®-1119 (Sigma). The plasma was removed by centrifugation at 3000 rpm for 30 min. The peripheral blood mononuclear cell-containing layer was collected with a pipette and diluted in 4 mL of PBS. PBMCs were harvested by centrifugation at 1500 rpm for 10 min at room temperature, resuspended in RPMI-1640 with 10% FBS, and incubated at 37 °C in 5% CO2 humidified air.
Cell viability was determined by measuring the mitochondrial activity of live cells via the metabolism of the tetrazolium substrate 3-(4,5-dimethylthiazol-2-yl)-2,5-diphenyl tetrazolium bromide (MTT) and converting it to purple formazan crystals. Briefly, the cells (2 × 10^4 cells/well) were treated with 25, 50, 100, 200, or 400 μg/mL extract diluted in DMSO (at a final concentration of 0.5%) and incubated for 12, 24, or 48 h. Catalposide and specioside were tested at concentrations of 20, 50, and 100 μg/mL for 12, 24, and 48 h. For apicidin, 0.5, 1, and 2 μM apicidin were tested for 24 and 48 h. Doxorubicin was used as a reference standard drug (positive control). After treatment, the medium was discarded; 200 μL of RPMI 1640 medium without phenol red containing 0.5 mg/mL MTT (Sigma Chemical Co., Saint Louis, MO, USA; Cat. No. M2128-500MG) was then added to each well. The plates were incubated for four hours at 37 °C with 5% CO2 in a humidified atmosphere. The medium was discarded, and 100 μL of DMSO was added to solubilize the formazan crystals. The absorbance was measured with an ELISA microplate reader at 492 nm (ELx800; BioTek Instruments Inc., Winooski, VT, USA). The percentage of viable cells was calculated on the basis of the nontreated control (taken as 100%). The IC50 (concentration causing a 50% reduction in cellular viability) values for all the tested compounds were evaluated in Excel using the nonlinear regression curve method. Three independent assays were performed, each in triplicate.

Jurkat cells = assay: MTT cell viability assay, Jurkat cells; format: cell-based, human; conditions: for IC50: Homo sapiens, Jurkat, MTT, n = 3; for SI (selectivity index): IC50 PBMC / IC50 Jurkat
Procedure: (§1) Jurkat and THP-1 cell lines were purchased from the American Type Culture Collection (ATCC, Rockville, MD, USA); Jurkat is a human lymphocytic cell line representing acute T-cell leukemia, and THP-1 is a monocytic cell line that represents acute myelogenous leukemia (AML). […] Cat Nos. […] The cells were maintained at 37 °C in a humidified atmosphere with 5% CO2. The culture medium was exchanged with fresh medium every 2-3 days. Peripheral blood mononuclear cells (PBMCs) were isolated from normal human venous blood. Further, 10 milliliters of human blood was mixed with 10 mL of RPMI-1640 containing 50 μL of heparin and gradually poured over 1 mL of HISTOPAQUE®-1119 (Sigma). The plasma was removed by centrifugation at 3000 rpm for 30 min. The peripheral blood mononuclear cell-containing layer was collected with a pipette and diluted in 4 mL of PBS. PBMCs were harvested by centrifugation at 1500 rpm for 10 min at room temperature, resuspended in RPMI-1640 with 10% FBS, and incubated at 37 °C in 5% CO2 humidified air. […] Doxorubicin was used as a reference standard drug (positive control). After treatment, the medium was discarded; 200 μL of RPMI 1640 medium without phenol red containing 0.5 mg/mL MTT (Sigma Chemical Co., Saint Louis, MO, USA; Cat. No. […] The plates were incubated for four hours at 37 °C with 5% CO2 in a humidified atmosphere. The medium was discarded, and 100 μL of DMSO was added to solubilize the formazan crystals. The absorbance was measured with an ELISA microplate reader at 492 nm (ELx800; BioTek Instruments Inc., Winooski, VT, USA). The percentage of viable cells was calculated on the basis of the nontreated control (taken as 100%). […] Three independent assays were performed, each in triplicate. The selectivity index corresponds to the ratio of the IC50 value calculated for the activity of synthesized compounds on a regular cell line (PBMCs) to that of the IC50 calculated for cancer cell lines (Jurkat and THP-1). Values greater than two were optimal for an efficient selectivity index.

THP-1 cells [2] = assay: MTT cell viability assay, THP-1 cells; format: cell-based, human; conditions: for IC50: Homo sapiens, MTT, n = 3, read-out: IC50
Procedure: as §1

THP-1 cells [3] = assay: Mitochondrial membrane potential (JC-1); format: cell-based, human; conditions: THP-1, JC-1, 24 h
Procedure: The Λᴪm was measured using a Guava Mitochondrial Depolarization Kit (4500-0250 Millipore, Darmstadt, Germany). After pretreatment with 1 µM apicidin for 24 h, the cells were exposed to various concentrations of the extract (25, 50, and 100 µg/mL) for 24 h. The cells were collected and suspended in 100 µL of PBS containing JC-1 and 7-AAD after incubation at 37 °C for 15 min. The fluorescence intensity of the cells was analyzed in a Guava Millipore flow cytometer (Merck Millipore, Bedford, MA, USA) using InCyte software (version 3.1, Merck Millipore).

THP-1 cells [4] = assay: Fluorescence microscopy of nuclear morphology (propidium iodide and Hoechst staining); format: cell-based, human; conditions: THP-1, APC pretreatment, extract 25 μg/mL
Procedure: Fluorescence microscopy was used to observe cell nuclear morphology, followed by propidium iodide (50 µg/mL) and Hoechst 333342 (1 mg/mL) staining. THP-1 cells (1 × 10^5 cells/well) were treated with fresh media (control) and with 25, 50, or 100 µg/mL extract for 24 h; 400 µM doxorubicin was used as a positive control. Further, 10 microliters of the cell suspension was mixed with 90 µL of the dye, incubated in a water bath for 5 min at 37 °C, and wrapped in aluminum foil. The cells were examined under an Olympus IX53 fluorescence microscope (Olympus Corporation, Tokyo, Japan). The following formula was used to calculate the percentage of apoptotic cells.

THP-1 cells [5] = assay: Flow cytometric apoptosis, Annexin V-CF647/7-AAD; format: cell-based, human; conditions: THP-1, 24 h, apicidin pretreatment
Procedure: In 96-well plates, 8 × 10^4 cells were treated with 25, 50, and 100 µg/mL extract and 400 µM doxorubicin (positive control) for 24 and 48 h. The cells were washed with 1X PBS, and apoptotic cells were detected by staining with 100 µL of Annexin V-CF647 and 5 µL of the 7-AAD Apoptosis Annexin Red Kit (FCCH100108 FlowCellect, Millipore, Darmstadt, Germany). The cells were incubated at room temperature for 15 min in the dark and analyzed on a Guava Millipore flow cytometer (Merck Millipore, Bedford, MA, USA) using InCyte software (version 3.1, Merck Millipore). The percentage of annexin V-positive cells was evaluated.

THP-1 cells [6] = assay: Cell cycle analysis by flow cytometry; format: cell-based, human; conditions: THP-1, APC pretreatment
Procedure: After treatment with the extract, 7 × 10^4 cells were harvested, washed with PBS, fixed with 200 µL of ice-cold 70% ethanol, and maintained at 4 °C for 4 h before staining. The cell pellet was washed in 1X PBS, resuspended in 200 µL of Guava Cell Cycle reagent (#4500-0220, Millipore), and incubated in the dark at 37 °C for 30 min before analysis with a Guava flow cytometer (Merck Millipore, Bedford, MA, USA) using InCyte software (version 3.1, Merck Millipore).. Centrifugation was performed at 1200 rpm for 5 min at room temperature for each step.

COc1cccc2c1C(=O)c1c(O)c3c(c(O)c1C2=O)C[C@@](O)(C(=O)CO)C[C@@H]3O[C@H]1C[C@H](N)[C@H](O)[C@H](C)O1 [Doxorubicin, reference compound]
IC50 ([1]; 12 h): 1.36 ± 0.15 µg/mL (≈ 2.51 µM) | IC50 ([1]; 24 h): 0.224 ± 0.1 µg/mL (≈ 0.412 µM) | IC50 ([1]; 48 h): 0.018 ± 0.1 µg/mL (≈ 0.0331 µM) | IC50 (Jurkat cells; 12 h): 0.339 ± 1.2 µg/mL (≈ 0.624 µM) | IC50 (Jurkat cells; 24 h): 0.258 ± 0.1 µg/mL (≈ 0.475 µM) | IC50 (Jurkat cells; 48 h): 0.05 µg/mL (≈ 0.092 µM) | SI (selectivity index) (Jurkat cells; 12 h): 4.02 | SI (selectivity index) (Jurkat cells; 24 h): 0.86 | SI (selectivity index) (Jurkat cells; 48 h): 0.36 | IC50 (THP-1 cells [2]; THP-1, 12 h): 1.27 ± 0.2 µg/mL (≈ 2.33 µM) | IC50 (THP-1 cells [2]; THP-1, 24 h): 0.189 ± 0.1 µg/mL (≈ 0.348 µM) | IC50 (THP-1 cells [2]; THP-1, 48 h): 0.005 ± 0.01 µg/mL (≈ 0.0092 µM) | SI (selectivity index) (THP-1 cells [2]; IC50 PBMC / IC50 THP-1, 12 h): 1.07 | SI (selectivity index) (THP-1 cells [2]; IC50 PBMC / IC50 THP-1, 24 h): 1.183 | SI (selectivity index) (THP-1 cells [2]; IC50 PBMC / IC50 THP-1, 48 h): 3.6

CCC(=O)CCCCC[C@@H]1NC(=O)[C@H]2CCCCN2C(=O)[C@H]([C@@H](C)CC)NC(=O)[C@H](Cc2cn(OC)c3ccccc23)NC1=O [APC, apicidin]
depolarization of the mitochondrial membrane (THP-1 cells [3]): decreased mitochondrial membrane polarization | apoptosis (nuclear morphology) after APC pretreatment (THP-1 cells [4]): increased apoptosis | percentage of apoptotic cells, apicidin pretreatment compared with catalposide or specioside treatment (THP-1 cells [5]): increased the percentage of apoptotic cells | G0/G1 phase arrest with APC pretreatment (THP-1 cells [6]): increased
